# Like-named read-outs stand apart in the source and are kept apart here.
# What was measured:
# CCRF-CEM = assay: NCI SRB cytotoxicity, leukemia CCRF-CEM; type: cell-based; settings: Homo sapiens, 48 h exposure
# Procedure: (§1) The pyrazolochalcones (7e, 8e, 10e, 11e, 12e, 13e and 8f) have been tested against fifty nine human tumor cell lines derived from nine cancer types (leukemia, non-small cell lung cancer, colon cancer, CNS cancer, melanoma, ovarian cancer, renal cancer, prostate cancer and breast cancer) as per the NCI protocol. For each compound, dose response curves for individual cell lines have been measured at a minimum of five concentrations at 10 fold dilutions. A protocol of 48 h continuous drug exposure has been used, and a sulforhodamine B (SRB) protein assay has been used to estimate cell viability or growth. The concentration for 50% cell growth inhibition (GI50), 50% cell death (LC50, 50% growth) and total cell growth inhibition (TGI, 0% growth) values were tabulated (Table-1). DMSO was used as control to calculate the values of GI50, LC50 and TGI. The compounds 7e, 8e, 10e, 11e, 12e, 13e and 8f has been evaluated for their in vitro cytotoxicity in […] cell lines from nine human cancer types of leukemia (K-562, SR), non-small cell lung (Hop-62, NCI-H226, NCI-H522), colon (HCT-116, HCT-15, HCC-2998), CNS (SF-539), melanoma (SK-MEL-5, UACC-62, M14), ovarian (IGROV1), renal (A498), prostate (PC3) and breast (BT-549, MDA-MB-435, HS578T) origin. The results are expressed as percent of cell growth determined relative to that of untreated control cells (Table 2).
# RPMI-8226 = assay: NCI SRB cytotoxicity, leukemia RPMI-8226; type: cell-based; settings: Homo sapiens, 48 h exposure
# Procedure: as §1
# A549/ATCC = assay: NCI SRB cytotoxicity, non-small cell lung A549/ATCC; type: cell-based; settings: Homo sapiens, 48 h exposure
# Procedure: as §1
# HOP-62 = assay: NCI SRB cytotoxicity, non-small cell lung HOP-62; type: cell-based; settings: Homo sapiens, 48 h exposure
# Procedure: as §1
# NCI-H23 = assay: NCI SRB cytotoxicity, non-small cell lung NCI-H23; type: cell-based; settings: Homo sapiens, 48 h exposure
# Procedure: as §1
# NCIH322M = assay: NCI SRB cytotoxicity, non-small cell lung NCIH322M; type: cell-based; settings: Homo sapiens, NCI-H322M, 48 h exposure
# Procedure: as §1
# NCI-H460 = assay: NCI SRB cytotoxicity, non-small cell lung NCI-H460; type: cell-based; settings: Homo sapiens, 48 h exposure
# Procedure: as §1
# NCI-H522 = assay: NCI SRB cytotoxicity, non-small cell lung NCI-H522; type: cell-based; settings: Homo sapiens, 48 h exposure
# Procedure: as §1
# HCT-116 = assay: NCI SRB cytotoxicity, colon HCT-116; type: cell-based; settings: Homo sapiens, 48 h exposure
# Procedure: as §1
# KM12 = assay: NCI SRB cytotoxicity, colon KM12; type: cell-based; settings: Homo sapiens, 48 h exposure
# Procedure: as §1
# SW-620 = assay: NCI SRB cytotoxicity, colon SW-620; type: cell-based; settings: Homo sapiens, 48 h exposure
# Procedure: as §1
# SF-268 = assay: NCI SRB cytotoxicity, CNS SF-268; type: cell-based; settings: Homo sapiens, 48 h exposure
# Procedure: as §1
# SNB-75 = assay: NCI SRB cytotoxicity, CNS SNB-75; type: cell-based; settings: Homo sapiens, 48 h exposure
# Procedure: as §1
# LOX IMVI = assay: NCI SRB cytotoxicity, melanoma LOX IMVI; type: cell-based; settings: Homo sapiens, 48 h exposure
# Procedure: as §1
# MDA-MB-435 [1] = assay: NCI SRB cytotoxicity, melanoma MDA-MB-435; type: cell-based; settings: Homo sapiens, Melanoma panel MDA-MB-435, 48 h exposure
# Procedure: as §1
# SK-MEL-28 = assay: NCI SRB cytotoxicity, melanoma SK-MEL-28; type: cell-based; settings: Homo sapiens, 48 h exposure
# Procedure: as §1
# SK-MEL-5 = assay: NCI SRB cytotoxicity, melanoma SK-MEL-5; type: cell-based; settings: Homo sapiens, 48 h exposure
# Procedure: as §1
# UACC-257 = assay: NCI SRB cytotoxicity, melanoma UACC-257; type: cell-based; settings: Homo sapiens, 48 h exposure
# Procedure: as §1
# IGROV1 = assay: NCI SRB cytotoxicity, ovarian IGROV1; type: cell-based; settings: Homo sapiens, IGROV-1, 48 h exposure
# Procedure: as §1
# OVCAR-4 = assay: NCI SRB cytotoxicity, ovarian OVCAR-4; type: cell-based; settings: Homo sapiens, 48 h exposure
# Procedure: as §1
# OVCAR-5 = assay: NCI SRB cytotoxicity, ovarian OVCAR-5; type: cell-based; settings: Homo sapiens, 48 h exposure
# Procedure: as §1
# 786-0 = assay: NCI SRB cytotoxicity, renal 786-0; type: cell-based; settings: Homo sapiens, 48 h exposure
# Procedure: as §1
# A498 = assay: NCI SRB cytotoxicity, renal A498; type: cell-based; settings: Homo sapiens, 48 h exposure
# Procedure: as §1
# CAKI-1 = assay: NCI SRB cytotoxicity, renal CAKI-1; type: cell-based; settings: Homo sapiens, 48 h exposure
# Procedure: as §1
# RXF 393 = assay: NCI SRB cytotoxicity, renal RXF 393; type: cell-based; settings: Homo sapiens, 48 h exposure
# Procedure: as §1
# TK-10 = assay: NCI SRB cytotoxicity, renal TK-10; type: cell-based; settings: Homo sapiens, 48 h exposure
# Procedure: as §1
# UO-31 = assay: NCI SRB cytotoxicity, renal UO-31; type: cell-based; settings: Homo sapiens, 48 h exposure
# Procedure: as §1
# HS 578T = assay: NCI SRB cytotoxicity, breast HS 578T; type: cell-based; settings: Homo sapiens, 48 h exposure
# Procedure: as §1
# MDA-MB-435 [2] = assay: NCI SRB cytotoxicity, breast panel MDA-MB-435; type: cell-based; settings: Homo sapiens, 48 h exposure
# Procedure: as §1
# Leukemia = assay: NCI SRB cytotoxicity, leukemia panel average; type: cell-based, human; settings: average of cell lines
# Procedure: as §1
# (§2) Each cancer type represents the average of six to eight different cancer cell lines.
# Non-small cell lung = assay: NCI SRB cytotoxicity, non-small cell lung panel average; type: cell-based, human; settings: average of cell lines
# Procedure: as §1, §2
# Ovarian = assay: NCI SRB cytotoxicity, ovarian panel average; type: cell-based, human; settings: average of cell lines
# Procedure: as §1, §2
# Prostate = assay: NCI SRB cytotoxicity, prostate panel average; type: cell-based, human; settings: average of cell lines
# Procedure: as §1, §2
# Breast = assay: NCI SRB cytotoxicity, breast panel average; type: cell-based, human; settings: average of cell lines
# Procedure: as §1, §2
# human tumor cell lines = assay: NCI SRB cytotoxicity, all fifty nine human tumor cell lines; type: cell-based; design: Log10 TGI mean graph midpoint (MG_MID): unit not given here; settings: for GI50: Homo sapiens
# Procedure: as §1
# The mean graph midpoint values of Log10 TGI and Log10 LC50 as well as Log10 GI50 for compounds 7e, 8e, 10e, 11e, 12e, 13e and 8f is listed in Table-3. […] The mean graph mid points of Log10 TGI and Log10, LC50 have shown similar pattern to the log10 GI50 mean graph mid points.
# [3] = Homo sapiens, read-out: Log10 GI50 (concentration in mol/L causing 50% growth inhibition) (converted)
# [4] = Homo sapiens, read-out: Log10 LC50 (concentration in mol/L causing 50% cell death) (converted)
smiles,measurement,setting,value
"COc1ccc(C(=O)/C=C/c2cc(-c3cc(OC)c(OC)c(OC)c3)n[nH]2)cc1OC [8e, (E)-1-(3,4-dimethoxyphenyl)-3-(3-(3,4,5-trimethoxyphenyl)-1H-pyrazol-5-yl)prop-2-en-1-one]",GI50,CCRF-CEM,0.62 µM
same,GI50,RPMI-8226,0.24 µM
same,GI50,A549/ATCC,1.86 µM
same,GI50,HOP-62,1.44 µM
same,GI50,NCI-H23,2.15 µM
same,GI50,NCIH322M,1.52 µM
same,GI50,NCI-H460,1.41 µM
same,GI50,NCI-H522,0.18 µM
same,GI50,HCT-116,0.88 µM
same,GI50,KM12,1.07 µM
same,GI50,SW-620,1.37 µM
same,GI50,SF-268,1.82 µM
same,GI50,SNB-75,1.23 µM
same,GI50,LOX IMVI,1.38 µM
same,GI50,MDA-MB-435 [1],1.34 µM
same,GI50,SK-MEL-28,1.78 µM
same,GI50,SK-MEL-5,1.65 µM
same,GI50,UACC-257,1.49 µM
same,GI50,IGROV1,1.8 µM
same,GI50,OVCAR-4,2.69 µM
same,GI50,OVCAR-5,1.59 µM
same,GI50,786-0,1.4 µM
same,GI50,A498,1.48 µM
same,GI50,CAKI-1,2.2 µM
same,GI50,RXF 393,1.35 µM
same,GI50,TK-10,1.33 µM
same,GI50,UO-31,1.28 µM
same,GI50,HS 578T,2.57 µM
same,GI50,MDA-MB-435 [2],0.75 µM
same,GI50,Leukemia; [3],0.794 µM
same,CC50,Leukemia; [4],97.7 µM
same,Log10 TGI (concentration in mol/L causing total growth inhibition (0% growth)),Leukemia,−5.19 mol/L
same,GI50,Non-small cell lung; [3],1.23 µM
same,LC50,Non-small cell lung; [4],6.46 µM
same,Log10 TGI (concentration in mol/L causing total growth inhibition (0% growth)),Non-small cell lung,−5.58 mol/L
same,GI50,Ovarian; [3],2.09 µM
same,CC50,Ovarian; [4],15.1 µM
same,Log10 TGI (concentration in mol/L causing total growth inhibition (0% growth)),Ovarian,−5.29 mol/L
same,GI50,Prostate; [3],0.871 µM
same,CC50,Prostate; [4],5.25 µM
same,Log10 TGI (concentration in mol/L causing total growth inhibition (0% growth)),Prostate,−5.64 mol/L
same,GI50,Breast; [3],1.23 µM
same,CC50,Breast; [4],15.1 µM
same,Log10 TGI (concentration in mol/L causing total growth inhibition (0% growth)),Breast,−5.47 mol/L
same,GI50,"human tumor cell lines; across fifty nine cell lines in nine cell panels, read-out: GI50 value range",0.18 to 29.2 µM
same,GI50,"human tumor cell lines; against human tumor cell lines, read-out: Log10 GI50 mean graph midpoint (MG_MID) (converted)",1.35 µM
same,cytotoxicity,"human tumor cell lines; against cancer cell lines, in words",significant cytotoxicity
same,Log10 TGI mean graph midpoint (MG_MID),human tumor cell lines; against human tumor cell lines,−5.47
same,LC50,"human tumor cell lines; against human tumor cell lines, read-out: Log10 LC50 mean graph midpoint (MG_MID) (converted)",10.5 µM

# Reference: patent US9604933B2, “Pyrazolochalcones as potential anticancer agents” (COUNCIL OF SCIENTIFIC AND INDUSTRIAL RESEARCH, priority 2013, dated 2017)
